Experimental data reported in US10850134B2, “Method and kit for home controlled ovarian stimulation for in vitro fertilization” (priority 2019, dated 2020).
Where “and” joins values, the source holds several entries; their conditions need not be identical. Equal values may be shown once.

Columns and labels:
[1] = system: Luteinizing hormone (LH) blood level; test: LH blood level in patients on home controlled ovarian hyperstimulation method with vaginal elagolix (Example 2); type: in vivo, female patients; details: for Luteinizing hormone (LH) blood level: 50 mg elagolix vaginal suppository days 9 and 11
Procedure: Five female patients were treated with the controlled ovarian hyperstimulation method described herein using the elagolix pill (vaginal route) instead of the conventional Ganirelex/Cetrotide injectables. On day 3 of the patient's menstrual cycle, the patient orally took 100 mg (two 50 mg oral tablets) of clomiphene citrate and 5 mg (two 2.5 mg oral tablets) of letrozole. The patient then took the same oral dosages of clomiphene citrate and letrozole daily on each of days 4-7 of the patient's menstrual cycle. On day 8 of the patient's menstrual cycle, the patient orally took only 100 mg (two 50 mg oral tablets) of clomiphene citrate, and stopped the letrozole. On day 9 of the menstrual cycle, the patient orally took 100 mg (two 50 mg oral tablets) of clomiphene citrate and inserted vaginally a 50 mg tablet of elagolix as a vaginal suppository. On day 10 of the menstrual cycle, the patient orally took only 100 mg (two 50 mg oral tablets) of clomiphene citrate. On day 11 of the menstrual cycle, the patient orally took 100 mg (two 50 mg oral tablets) of clomiphene citrate and inserted vaginally a 50 mg tablet of elagolix as a vaginal suppository. Also, on day 11, the patient took a home ovulation test in the morning (9:00 am) and in the evening (9:00 pm). For the patients whose ovulation tests were not positive, then on days 12 and 13, the patient took 2 doses of leuprorelin as a nasal spray (1:40 dilution in saline) as follows. On day 12, after taking a home ovulation test at 9:00 am, 2 puffs (sprays) of the nasal spray were self-administered by the patient per nostril. After 12 hours of waiting, at 9:00 pm the patient took a home urine ovulation test and then self-administered 2 more puffs (sprays) of the nasal spray per nostril. On day 13, the patient repeated the procedure of day 12. Luteinizing hormone (LH) blood level was 7.0 mIU/mL on day 11 and dropped to 1.0 mIU/mL on day 13.
(§1) Table 2 below provides a comparison of the efficacy of conventional Ganirelex/Cetrotide injectables treatment for IVF in the five representative patients from Example 1 with the home controlled ovarian hyperstimulation method described herein in the five representative patients from Example 2.

[2] = system: Luteinizing hormone (LH) blood level; test: LH blood level in patients on GnRH antagonist protocol with ganirelix acetate injections (Example 1); type: in vivo, female patients
Procedure: Five female patients were treated with a GnRH antagonist protocol requiring injections of medications.
One patient, patient no. 1, was injected with 150 Units of FSH on days 3 to 12; half a syringe of 150 mcg/0.5 mL of ganirelix acetate on days 11 and 12; and 50 mg of clomiphene citrate on days 3 to 12; and 2.5 mg of letrozole on days 3 to 7. Luteinizing hormone (LH) blood level was 4.3 mIU/mL on day 10 and dropped to 2 mIU/mL on day 12.
A second patient, patient no. 2, was injected with 75 Units of FSH on days 4 to 12 and 150 Units on day 13; half a syringe of 150 mcg/0.5 mL of ganirelix acetate on days 11 to 13; 50 mg of clomiphene citrate on days 10 to 12, and 2.5 mg of letrozole on days 3 to 7. Luteinizing hormone (LH) blood level was 12.0 mIU/mL on day 11 and dropped to 6.3 mIU/mL on day 13.
Three patients, numbered 3 to 5, were injected with 75, 150 and 225 Units of FSH, respectively, on days 4 to 12 and one third a syringe of 150 mcg/0.5 mL of ganirelix acetate on days 11 to 13. Patient no. 3 received 50 mg of clomiphene citrate on days 4 to 12, and 2.5 mg of letrozole on days 4 to 8. Patient no. 4 received 100 mg of clomiphene citrate and 2.5 mg of letrozole on days 4 to 8, and 50 mg of clomiphene citrate on days 9 to 11. Patient no. 5 received no clomiphene citrate or letrozole. Luteinizing hormone (LH) blood level was 12.0, 18.0 and 14.6 mIU/mL, respectively, on day 10 and dropped to 4.9, 16.0 and 14.1 mIU/mL, respectively, on day 12.
as §1

[3] = Example 2, vaginal elagolix suppository 50 mg days 9 and 11, individual patients 1-5, blood
[4] = Example 1, conventional injectables, individual patients 1-5, blood

## COc1cccc(-c2c(C)n(Cc3c(F)cccc3C(F)(F)F)c(=O)n(C[C@H](NCCCC(=O)O)c3ccccc3)c2=O)c1F [Vaginal elagolix suppository, elagolix]
[1]; Example 2, vaginal elagolix suppository 50 mg days 9 and 11, individual patients 1-5
  % Drop in blood LH hormone level: 85.7% and 65.9% and 68.6% and 79.3% and 88.6%
[1]; [3]
  LH blood hormone level (mIU/mL) AFTER medication intake: 1.0 mIU/mL and 5.7 mIU/mL and 3.2 mIU/mL and 1.7 mIU/mL and 0.8 mIU/mL
  LH blood hormone level (mIU/mL) BEFORE medication intake: 7.0 mIU/mL and 16.7 mIU/mL and 10.2 mIU/mL and 8.2 mIU/mL and 7 mIU/mL
[1]; day 11
  Luteinizing hormone (LH) blood level: 7.0 mIU/mL
[1]; day 11 to day 13
  drop in LH blood hormone levels: 85.7%
[1]; day 13
  Luteinizing hormone (LH) blood level: 1.0 mIU/mL

## ganirelix acetate
[2]; Example 1, conventional injectables, individual patients 1-5
  % Drop in blood LH hormone level: 53.5% and 47.5% and 59.2% and 11.1% and 3.4%
[2]; [4]
  LH blood hormone level (mIU/mL) AFTER medication intake: 2.0 mIU/mL and 6.3 mIU/mL and 4.9 mIU/mL and 16.0 mIU/mL and 14.1 mIU/mL
  LH blood hormone level (mIU/mL) BEFORE medication intake: 4.3 mIU/mL and 12.0 mIU/mL (2×) and 18.0 mIU/mL and 14.6 mIU/mL
[2]; patient no. 1, day 10, half a syringe ganirelix acetate days 11 and 12, 150 Units FSH
  Luteinizing hormone (LH) blood level: 4.3 mIU/mL
[2]; patient no. 1, day 10 to day 12
  drop in LH blood hormone levels: 53.5%
[2]; patient no. 1, day 12, half a syringe ganirelix acetate days 11 and 12, 150 Units FSH
  Luteinizing hormone (LH) blood level: 2 mIU/mL
[2]; patient no. 2, day 11, half a syringe ganirelix acetate days 11 to 13, 75 Units FSH
  Luteinizing hormone (LH) blood level: 12.0 mIU/mL
[2]; patient no. 2, day 11 to day 13
  drop in LH blood hormone levels: 47.5%
[2]; patient no. 2, day 13, half a syringe ganirelix acetate days 11 to 13, 75 Units FSH
  Luteinizing hormone (LH) blood level: 6.3 mIU/mL
[2]; patient no. 3, day 10, one third a syringe ganirelix acetate days 11 to 13, 75 Units FSH
  Luteinizing hormone (LH) blood level: 12.0 mIU/mL
[2]; patient no. 3, day 10 to day 12
  drop in LH blood hormone levels: 59.25
[2]; patient no. 3, day 12, one third a syringe ganirelix acetate days 11 to 13, 75 Units FSH
  Luteinizing hormone (LH) blood level: 4.9 mIU/mL
[2]; patient no. 4, day 10, one third a syringe ganirelix acetate days 11 to 13, 150 Units FSH
  Luteinizing hormone (LH) blood level: 18.0 mIU/mL
[2]; patient no. 4, day 10 to day 12
  drop in LH blood hormone levels: 11.1%
[2]; patient no. 4, day 12, one third a syringe ganirelix acetate days 11 to 13, 150 Units FSH
  Luteinizing hormone (LH) blood level: 16.0 mIU/mL
[2]; patient no. 5, day 10, one third a syringe ganirelix acetate days 11 to 13, 225 Units FSH, no clomiphene citrate or letrozole
  Luteinizing hormone (LH) blood level: 14.6 mIU/mL
[2]; patient no. 5, day 10 to day 12
  drop in LH blood hormone levels: 3.4%
[2]; patient no. 5, day 12, one third a syringe ganirelix acetate days 11 to 13, 225 Units FSH, no clomiphene citrate or letrozole
  Luteinizing hormone (LH) blood level: 14.1 mIU/mL
